# Values joined by “and” are separate entries in the source; they are usually repeats but may differ in a detail not shown here. Equal values may be shown once. Toxic doses and inconclusive results are not listed.
# Tested on: BDF1 mice, P388 leukemia ip, median survival T/C
# Experiment: NCI In Vivo Anticancer Drug Screen. Data for tumor model P388 Leukemia (intraperitoneal) in B6D2F1 (BDF1) mice
# Settings: endpoint: median survival time, higher = longer survival
# Summary of the method: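 Compound-treated tumour-bearing mice were compared with vehicle-treated controls. Survival was recorded, and the value is the treated-group measurement divided by the control-group measurement (T/C).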
# [1] = dose: 25.0 mg/kg/injection, schedule: Q01DX009 (ip), vehicle: water
# [2] = dose: 100.0 mg/kg/injection, schedule: Q01DX009 (ip), vehicle: water
# [3] = dose: 200.0 mg/kg/injection, schedule: Q01DX009 (ip), vehicle: water
# [4] = dose: 400.0 mg/kg/injection, schedule: Q01DX009 (ip), vehicle: water
# [5] = dose: 100.0 mg/kg/injection, schedule: Q04DX003 (ip), vehicle: saline
# [6] = dose: 200.0 mg/kg/injection, schedule: Q04DX003 (ip), vehicle: saline
# [7] = dose: 400.0 mg/kg/injection, schedule: Q04DX003 (ip), vehicle: saline
# [8] = dose: 50.0 mg/kg/injection, schedule: Q01DX009 (ip), vehicle: saline with Tween-80
# [9] = dose: 100.0 mg/kg/injection, schedule: Q01DX009 (ip), vehicle: saline with Tween-80
# [10] = dose: 200.0 mg/kg/injection, schedule: Q01DX009 (ip), vehicle: saline with Tween-80
# [11] = dose: 100.0 mg/kg/injection, schedule: Q04DX003 (ip), vehicle: Klucel (hydroxypropylcellulose) (HPC)
# [12] = dose: 200.0 mg/kg/injection, schedule: Q04DX003 (ip), vehicle: Klucel (hydroxypropylcellulose) (HPC)
# [13] = dose: 400.0 mg/kg/injection, schedule: Q04DX003 (ip), vehicle: Klucel (hydroxypropylcellulose) (HPC)
# [14] = dose: 50.0 mg/kg/injection, schedule: Q04DX003 (ip), vehicle: Klucel (hydroxypropylcellulose) (HPC)
compound,measurement,setting,value
O=c1[nH]c2ccccc2c(=O)n1C1CCCCC1,T/C,"dose: 12.5 mg/kg/injection, schedule: Q01DX009 (ip), vehicle: water",111 % of control
same,T/C,"dose: 12.5 mg/kg/injection, schedule: Q04DX003 (ip), vehicle: water",96 % of control
same,T/C,[1],111 % of control
same,T/C,"dose: 25.0 mg/kg/injection, schedule: Q04DX003 (ip), vehicle: water",100 % of control
same,T/C,"dose: 50.0 mg/kg/injection, schedule: Q04DX003 (ip), vehicle: water",107 % of control
same,T/C,[2],106 % of control
same,T/C,"dose: 100.0 mg/kg/injection, schedule: Q04DX003 (ip), vehicle: water",105 % of control
same,T/C,[3],101 % of control
same,T/C,[4],101 % of control
Cc1cccc(/C=N/Nc2ccccn2)n1,T/C,"dose: 50.0 mg/kg/injection, schedule: Q01DX005 (ip), vehicle: saline with Tween-80",108 % of control
same,T/C,"dose: 100.0 mg/kg/injection, schedule: Q01DX005 (ip), vehicle: saline with Tween-80",118 % of control
CC(NC(=O)C(C)NC(=O)C(N)CCS(C)(=O)=NP(=O)(O)O)C(=O)O (stereo unspecified),T/C,"dose: 12.5 mg/kg/injection, schedule: Q01DX009 (ip), vehicle: saline",101 % of control
same,T/C,"dose: 25.0 mg/kg/injection, schedule: Q01DX009 (ip), vehicle: saline",110 % of control
CC1C=CC(C(N)C(=O)O)O1 (stereo unspecified),T/C,[5],100 % of control
same,T/C,[6],100 % of control
same,T/C,[7],95 % of control and 100 % of control
O=C(O)c1cc(I)cc(I)c1,T/C,[5],100 % of control
same,T/C,[6],100 % of control
same,T/C,[7],160 % of control
O=C(Nc1ccccc1)OCCBr,T/C,[8],99 % of control
same,T/C,[9],107 % of control
same,T/C,[10],107 % of control
C(/C=N/N(c1ccccc1)c1ccccc1)=N\N(c1ccccc1)c1ccccc1,T/C,[11],100 % of control
same,T/C,[12],104 % of control
same,T/C,[13],104 % of control
Nc1ccc2ccccc2c1N=Nc1ccccc1,T/C,[11],109 % of control
same,T/C,[12],123 % of control
COc1ccc(NC(=S)N(CCC#N)C2CCCCC2)cc1,T/C,"dose: 6.25 mg/kg/injection, schedule: Q01DX009 (ip), vehicle: saline with Tween-80",86 % of control
same,T/C,"dose: 12.5 mg/kg/injection, schedule: Q01DX009 (ip), vehicle: saline with Tween-80",100 % of control
same,T/C,"dose: 25.0 mg/kg/injection, schedule: Q01DX009 (ip), vehicle: saline with Tween-80",104 % of control
same,T/C,[8],95 % of control
COc1ccc(/C=C/c2c[n+]([O-])ccc2[N+](=O)[O-])cc1,T/C,[8],105 % of control
same,T/C,[9],109 % of control
same,T/C,[10],119 % of control
O=[N+]([O-])c1ccc(N2CCN=N2)cc1,T/C,"dose: 25.0 mg/kg/injection, schedule: Q01DX010 (ip), vehicle: saline",104 % of control
same,T/C,"dose: 25.0 mg/kg/injection, schedule: Q04DX003 (ip), vehicle: saline sonified",100 % of control
same,T/C,"dose: 50.0 mg/kg/injection, schedule: Q01DX010 (ip), vehicle: saline",123 % of control
same,T/C,"dose: 50.0 mg/kg/injection, schedule: Q04DX003 (ip), vehicle: saline sonified",95 % of control
same,T/C,"dose: 100.0 mg/kg/injection, schedule: Q04DX003 (ip), vehicle: saline sonified",86 % of control
C[N+](C)(C)CCC[n+]1ccc(CCn2ccc3ccccc32)cc1,T/C,"dose: 25.0 mg/kg/injection, schedule: Q01DX001 (ip), vehicle: saline",100 % of control
same,T/C,"dose: 50.0 mg/kg/injection, schedule: Q01DX001 (ip), vehicle: saline",105 % of control
same,T/C,"dose: 100.0 mg/kg/injection, schedule: Q01DX001 (ip), vehicle: saline",105 % of control
O=C(/C(=C/c1ccccc1)CN1CCOCC1)c1ccccc1,T/C,"dose: 25.0 mg/kg/injection, schedule: Q04DX003 (ip), vehicle: Klucel (hydroxypropylcellulose) (HPC)",91 % of control
same,T/C,[14],95 % of control
same,T/C,[11],91 % of control
CCOC(=O)C1=C(Nc2ccccc2)CSC1,T/C,[1],94 % of control
same,T/C,"dose: 50.0 mg/kg/injection, schedule: Q01DX009 (ip), vehicle: water",97 % of control
same,T/C,[2],102 % of control
same,T/C,[3],108 % of control
same,T/C,[4],91 % of control
CCOC(=O)Cn1cnc2cc(Cl)c([N+](=O)[O-])cc2c1=O,T/C,[14],96 % of control
same,T/C,[11],104 % of control
same,T/C,[12],102 % of control
same,T/C,[13],109 % of control
COc1ccc(C(O)(CS(C)=O)c2cccs2)cc1 (stereo unspecified),T/C,[9],107 % of control
same,T/C,[10],99 % of control
